Experiments:
[1] = tested on: CT26 tumors; assay: nCounter Mouse PanCancer Immune Profiling of CT26 tumors from treated mice; format: in vivo
Excerpt: In this example, the gene expression changes induced in tumors from mice treated with compound 23 studies were investigated. To perform this assessment, the nCounter PanCancer Immune Profiling Panel was used, which is a multiplexed gene expression panel developed by NanoString Technologies that measures expression of 770 immune and cancer related genes (Eastel et al., 2019, Expert Review of Molecular Diagnostics, 19(7):591-598). This technology is a unique gene expression tool that covers many important features of the immune response in the tumor microenvironment and was used to facilitate the understanding of immune related changes in tumors treated with compound 23.
In FIG. 4A, CT26 tumors were harvested after 4 doses and after 19 doses of compound 23 or vehicle and gene expression was directly measured using the nCounter Mouse PanCancer Immune Profiling Panel. Analysis was performed using the nSolver 4.0 and the nCounter Advanced Analysis software comparing gene expression in compound 23 to vehicle treated tumors. […] Statistical significance of differences in mean cell type scores between compound 23 and vehicle treated groups was evaluated using Mann-Whitney test (*P≤0.05, **P≤0.01, and ***P≤0.001).
(§1) In FIG. 4B, CT26 tumors were harvested after 4 treatment doses and gene expression was directly measured using the nCounter Mouse PanCancer Immune Profiling Panel. Analysis was performed using the nSolver 4.0 and the nCounter Advanced Analysis software comparing gene expression in compound 23 to vehicle treated tumors. As indicated in the titles above each panel, scatter plots of individual Pathway Signature Scores of vehicle and compound 23 treated tumors are shown. Statistical significance of differences in Pathway Signature Scores between compound 23 and vehicle treated groups was evaluated using Mann-Whitney test (*P≤0.05, **P≤0.01, and ***P≤0.001).
as §1, with “FIG. 4C,” for “FIG. 4B,”, “after 19” for “after 4”

[2] = tested on: CT26 tumors; assay: CT26 tumor model with depleting antibodies for CD4+, CD8+ or NK cells; format: in vivo, mice; settings: 30 mg/kg PO QD Day 9 to 25
Procedure: Tumor volume at Day 25 is indicated. CD8+ T-cell or NK cell depletion abrogates compound 23 activity. Stats were calculated with Mann-Whitney (Vehicle vs. compound 23) or one-way ANOVA with Dunn's multiple comparisons test (compound 23 vs. Depletion groups); (*P≤0.05, **P≤0.01, ****P≤0.0001). The efficacy of compound 23 on tumors is CD8+ T function and on NK cell function.

[3] = tested on: orthotopic 4T1 tumors; assay: Orthotopic 4T1 model, combination with anti-PD-1 antibody; format: in vivo, mice
Procedure: This example provides assays and results for treating tumor models in vivo with combinations of Cbl-b compounds and anti-PD1 antibodies as described herein. The antibody is a mouse anti-PD1 RMP1-14 antibody, useful in mouse in vivo assays as model for administration of human PD-1 axis antagonists for treatment of human cancer.
Beginning on Day 9, tumor volumes and body weights were measured twice weekly. […] Statistical significance of differences in the number of colonies between groups was evaluated using Kruskal-Wallis one-way ANOVA with Dunn's multiple comparisons test.

[4] = tested on: BT549 tumor cell line; assay: Caspase 3/7 apoptosis Incucyte assay with paclitaxel, BT549; format: cell-based; settings: 0.1 μM compound 23, 0.002 μM paclitaxel, vs 0.05% DMSO, combination also vs single agents p<0.0001
Procedure: BT549 cells were seeded in duplicate into tissue culture treated black-sided, clear-bottom 96-well plates at 5,000 ^cells/well and allowed to adhere and establish for 24 h. Cells were treated with DMSO, compound 23, or Paclitaxel either alone or in combination and were labelled with 1× Essen Bioscience IncuCyte® Caspase-3/7 Green Reagent (final concentration 5 μM). Treated plates were imaged every 2 hours for 48 hours with the IncuCyte® S3 Live-Cell Analysis System. At each timepoint, one image per well was taken in both brightfield and FITC channels on the IncuCyte® S3 Live-Cell Analysis System. Images were analyzed for number of green objects per mm^2 using the IncuCyte S3 v2017A software.
Using a caspase 3/7 apoptosis Incucyte® assay, the effect of compound 23, paclitaxel and the combination of compound 23 and paclitaxel on tumor cell apoptosis was assessed in the BT549 tumor cell line (a mammary gland carcinoma) in vitro.

In the case of `C[C@H]1CCCN(Cc2cc3c(c(C(F)(F)F)c2)CN(c2cccc([C@]4(c5nncn5C)C[C@@H](C)C4)c2)C3=O)C1` [compound 23], the “T-cell, B cell, NK cell and adaptive immune function pathway scores” value ([1]; after 4 doses) was “not significant”, the “gene expression in innate immune signaling pathways (dendritic cell function, macrophage function, chemokine receptors and pathways)” value ([1]; after 4 doses) was “significant gene expression changes” and the “cytotoxic cell infiltration score” value ([1]; after 4 doses, 30 mg/kg daily PO, vs vehicle, P=0.1061) was “clear trend of increased infiltration”. The “infiltration of tumor infiltrating lymphocytes (TIL) score” value ([1]; after 4 doses, 30 mg/kg daily PO, vs vehicle, P=0.6679) was “clear trend of increased infiltration”, the T-cell infiltration score ([1]; after 4 doses, 30 mg/kg daily PO, vs vehicle, P=0.7551) was “clear trend of increased infiltration” and the “immune related pathway scores” value ([1]; after 19 doses) was “significantly enhanced function”. For the same compound, the “cytotoxic cell infiltration score” value ([1]; after 19 doses PO, vs vehicle, P=0.0002) was “significant increases”, the TIL infiltration score ([1]; after 19 doses PO, vs vehicle, P=0.0044) was “significant increases” and the T-cell infiltration score ([1]; after 19 doses PO, vs vehicle, P=0.0098) was “significant increases”. The “effect of CD8+ T-cell depletion on compound activity (tumor volume at Day 25)” value [2] was “abrogates”, the “effect of NK cell depletion on compound activity (tumor volume at Day 25)” value ([2]; anti-asialo-GM1) was “abrogates” and the “interaction with PD-1 antibody blockade” value [3] was “synergizes”. For the same compound, the “metastatic lung tumor burden” value ([3]; lungs harvested Day 28, single agents vs vehicle, combination vs vehicle or either single agent) was “reduced metastatic lung tumor burden”, the primary tumor volume ([3]; single agents vs vehicle, combination vs vehicle or either single agent) was “significantly smaller primary tumors” and the “tumor cell apoptosis (caspase 3/7)” value [4] was “did not undergo a significant increase in apoptosis”.

Source: patent publication US12016860B2, “Combination therapies with Cbl-b inhibitor compounds” (Nurix Therapeutics, Inc., priority 2021, dated 2024)
